In one experiment the test system is Acinetobacter baumannii ATCC17961. Description: Antimicrobial susceptibility testing: 90% growth inhibitory concentration (IC90) determination. The class given is cell-based. The following applies: ATCC17961, 90% growth inhibitory concentration, Iso-Sensitest broth, OD 600 nm over 16 h, 35±2° C., read-out: ATCC 17961 IC90. The method, then:
Assay Procedures Antimicrobial Susceptibility Testing: 90% Growth Inhibitory Concentration (IC90) Determination
The in vitro antimicrobial activity of the compounds was determined according to the following procedure:
The assay used a 10-points Iso-Sensitest broth medium to measure quantitatively the in vitro activity of the compounds against Acinetobacter baumannii ATCC17961.
Stock compounds in DMSO were serially twofold diluted (e.g. range from 50 to 0.097 μM final concentration) in 384 wells microtiter plates and inoculated with 49 μl the bacterial suspension in Iso-Sensitest medium to have a final cell concentration of ˜5×10^5 CFU/ml in a final volume/well of 50 μl/well. Microtiter plates were incubated at 35±2° C.
Bacterial cell growth was determined with the measurement of optical density at λ=600 nm each 20 minutes over a time course of 16 h. Growth inhibition was calculated during the logarithmic growth of the bacterial cells with determination of the concentration inhibiting 50% (IC50) and 90% (IC90) of the growth.
Table 1 provides the 90% growth inhibitory concentrations (IC90) in micromoles per liter of the compounds of present invention obtained against the strain Acinetobacter baumannii ATCC17961.
Regarding `Cn1c(-c2ccc3c(c2)OCCO3)cnc1C(=O)Nc1ccc(C(=O)N2CCN(C(=O)C3CCNCC3)CC2)c(Cl)c1` [Example A20, N-[3-chloro-4-[4-(piperidine-4-carbonyl)piperazine-1-carbonyl]phenyl]-5-(2,3-dihydro-1,4-benzodioxin-6-yl)-1-methyl-imidazole-2-carboxamide], the concentration for an effect of 90% (IC90) was 0.52 µM.
Take `CN(C)c1nc(F)c(-c2cnc(C(=O)Nc3ccc(C(=O)NCCCCCCN)c(Cl)c3)n2C)cc1F` [Example B1, N-[4-(6-aminohexylcarbamoyl)-3-chloro-phenyl]-5-[6-(dimethylamino)-2,5-difluoro-3-pyridyl]-1-methyl-imidazole-2-carboxamide]: the 90% effect concentration (IC90) worked out at 1.7 µM.
Turning to `CN(C)CC(=O)N1CCN(C(=O)c2ccc(NC(=O)c3ncc(-c4cc(F)c(N(C)C)nc4F)n3C)cc2Cl)CC1` [Example C1, N-[3-chloro-4-[4-[2-(dimethylamino)acetyl]piperazine-1-carbonyl]phenyl]-5-[6-(dimethylamino)-2,5-difluoro-3-pyridyl]-1-methyl-imidazole-2-carboxamide], the IC90 came out at 0.53 µM.
For the compound `Cc1cc(NC(=O)c2ncc(-c3cc(F)c(N(C)C)nc3F)n2C)ccc1C(=O)N1CCN(C(=O)CN(C)C)CC1` [Example C2, N-[4-[4-[2-(dimethylamino)acetyl]piperazine-1-carbonyl]-3-methyl-phenyl]-5-[6-(dimethylamino)-2,5-difluoro-3-pyridyl]-1-methyl-imidazole-2-carboxamide], the concentration for an effect of 90% (IC90) was determined as 2.5 µM.
Regarding `CN(C)c1nc(F)c(-c2cnc(C(=O)Nc3ccc(C(=O)N4CCN(C(=O)C[N+](C)(C)C)CC4)c(Cl)c3)n2C)cc1F` [Example D1, [2-[4-[2-chloro-4-[[5-[6-(dimethylamino)-2,5-difluoro-3-pyridyl]-1-methyl-imidazole-2-carbonyl]amino]benzoyl]piperazin-1-yl]-2-oxo-ethyl]-trimethyl-ammonium], the 90% effect concentration (IC90) was found to be 0.65 µM.
Consider `CN(C)c1nc(F)c(-c2cnc(C(=O)Nc3ccc(C(=O)NCCCCCC[N+](C)(C)C)c(Cl)c3)n2C)cc1F` [Example D3, 6-[[2-chloro-4-[[5-[6-(dimethylamino)-2,5-difluoro-3-pyridyl]-1-methyl-imidazole-2-carbonyl]amino]benzoyl]amino]hexyl-trimethyl-ammonium], for which the IC90 was 4.2 µM.
As to `CN(C)c1nc(F)c(-c2cnc(C(=O)Nc3ccc(C(=O)N4CCN(C(=O)C5CC[N+](C)(C)CC5)CC4)c(Cl)c3)n2C)cc1F` [Example D4, N-[3-chloro-4-[4-(1,1-dimethylpiperidin-1-ium-4-carbonyl)piperazine-1-carbonyl]phenyl]-5-[6-(dimethylamino)-2,5-difluoro-3-pyridyl]-1-methyl-imidazole-2-carboxamide], the IC90 was determined as 0.6 µM.
For the compound `CN(C)c1nc(F)c(-c2cnc(C(=O)Nc3ccc(C(=O)N4CCN(C(=O)C5CC[N+](C)(C)C5)CC4)c(Cl)c3)n2C)cc1F` (stereo not shown) [Example D5, N-[3-chloro-4-[4-(1,1-dimethylpyrrolidin-1-ium-3-carbonyl)piperazine-1-carbonyl]phenyl]-5-[6-(dimethylamino)-2,5-difluoro-3-pyridyl]-1-methyl-imidazole-2-carboxamide], the 90% effect concentration (IC90) was found to be 0.59 µM.
`CN(C)c1nc(F)c(-c2cnc(C(=O)Nc3ccc(C(=O)N4CCN(C(=O)CC5CC[N+](C)(C)CC5)CC4)c(Cl)c3)n2C)cc1F` [Example D7, N-[3-chloro-4-[4-[2-(1,1-dimethylpiperidin-1-ium-4-yl)acetyl]piperazine-1-carbonyl]phenyl]-5-[6-(dimethylamino)-2,5-difluoro-3-pyridyl]-1-methyl-imidazole-2-carboxamide]: the IC90 worked out at 0.76 µM.

Staying with this experiment, now noted: ATCC17961, 16 h, read-out: ATCC 17961 IC90 [μM].
For `CN(C)c1nc(F)c(-c2cnc(C(=O)Nc3ccc(C(=O)NC4CC(NC(=O)C[N+](C)(C)C)C4)c(Cl)c3)n2C)cc1F` (stereo not shown) [Example D8, [2-[[3-[[2-chloro-4-[[5-[6-(dimethylamino)-2,5-difluoro-3-pyridyl]-1-methyl-imidazole-2-carbonyl]amino]benzoyl]amino]cyclobutyl]amino]-2-oxo-ethyl]-trimethyl-ammonium], the IC90 was 2.7 µM.

As usually defined, the IC90 is the concentration at which the effect reaches the 90% level.

Values taken from US12595255B2, “Heteroaryl-substituted imidazole derivatives” (Hoffmann-La Roche Inc., priority 2021, dated 2026).
